Measurements taken from ChEMBL document CHEMBL5614421, “Structure-activity relationship study of Pseudellone C as anti-glioma agents by targeting TNF/TNFR signaling pathway” (Eur J Med Chem, 2024).

Assays:
[1] = test system: U-87 MG; experiment: Antiproliferative activity against human U-87 MG cells assessed as inhibition of cell growth incubated for 68 hrs by CCK-8 assay; format: functional, cell-based, U-87MG ATCC
[2] = test system: LN-229; experiment: Antiproliferative activity against human LN-229 cells assessed as inhibition of cell growth incubated for 68 hrs by CCK-8 assay; format: functional, cell-based; conditions: LN-229, 68 h
[3] = test system: U-87 MG; experiment: Induction of apoptosis in human U-87 MG cells assessed as viable cells at 5 uM incubated for 24 hrs by Annexin V-APC/7-AAD staining based flow cytometric analysis (reference value: 85 %); format: functional, U-87MG ATCC; conditions: read-out: Activity
[4] = test system: U-87 MG; experiment: Induction of apoptosis in human U-87 MG cells assessed as early apoptotic cells at 5 uM incubated for 24 hrs by Annexin V-APC/7-AAD staining based flow cytometric analysis (reference value: 3.44 %); format: functional, U-87MG ATCC
[5] = test system: U-87 MG; experiment: Induction of apoptosis in human U-87 MG cells assessed as late apoptotic cells at 5 uM incubated for 24 hrs by Annexin V-APC/7-AAD staining based flow cytometric analysis (reference value: 7.7 %); format: functional, U-87MG ATCC
[6] = test system: U-87 MG; experiment: Induction of apoptosis in human U-87 MG cells assessed as necrotic cells at 5 uM incubated for 24 hrs by Annexin V-APC/7-AAD staining based flow cytometric analysis (reference value: 3.85 %); format: functional, U-87MG ATCC
[7] = test system: LN-229; experiment: Induction of apoptosis in human LN-229 cells assessed as viable cells at 5 uM incubated for 24 hrs by Annexin V-APC/7-AAD staining based flow cytometric analysis (reference value: 92.3 %); format: functional; conditions: read-out: Activity
[8] = test system: LN-229; experiment: Induction of apoptosis in human LN-229 cells assessed as early apoptotic cells at 5 uM incubated for 24 hrs by Annexin V-APC/7-AAD staining based flow cytometric analysis (reference value: 0.91 %); format: functional
[9] = test system: LN-229; experiment: Induction of apoptosis in human LN-229 cells assessed as late apoptotic cells at 5 uM incubated for 24 hrs by Annexin V-APC/7-AAD staining based flow cytometric analysis (reference value: 4.86 %); format: functional
[10] = test system: LN-229; experiment: Induction of apoptosis in human LN-229 cells assessed as necrotic cells at 5 uM incubated for 24 hrs by Annexin V-APC/7-AAD staining based flow cytometric analysis (reference value: 1.95 %); format: functional

SMILES | IC50 [1] [µM] | IC50 [2] [µM] | further results
CC(C(=O)N[C@@H](Cc1c[nH]c2ccccc12)C(=O)NC[C@@H]1CCCO1)(c1c[nH]c2ccccc12)c1c[nH]c2ccccc12 | > 50 | 23.5 | 
CCCCCCCCCCCCOC(=O)[C@H](Cc1c[nH]c2ccccc12)NC(=O)C(C)(c1c[nH]c2ccccc12)c1c[nH]c2ccccc12 | 54.9 | > 50 | 
CCCCCNC(=O)[C@H](Cc1c[nH]c2ccccc12)NC(=O)C(C)(c1c[nH]c2ccccc12)c1c[nH]c2ccccc12 | 19.4 | 18.8 | 
CC(C(=O)N[C@@H](Cc1c[nH]c2ccccc12)C(=O)NCC1CC1)(c1c[nH]c2ccccc12)c1c[nH]c2ccccc12 | > 50 | > 50 | 
CNC(=O)[C@@H](NC(=O)C(C)(c1c[nH]c2ccccc12)c1c[nH]c2ccccc12)C(=O)c1c[nH]c2ccccc12 | 168 | > 100 | 
CC(C)OC(=O)[C@H](Cc1c[nH]c2ccccc12)NC(=O)C(C)(c1c[nH]c2ccccc12)c1c[nH]c2ccccc12 | 23.5 | > 50 | 
COc1ccc(CNC(=O)C(C)(c2c[nH]c3ccccc23)c2c[nH]c3ccccc23)cc1 | > 50 | > 50 | 
Cc1ccc(CNC(=O)C(C)(c2c[nH]c3ccccc23)c2c[nH]c3ccccc23)cc1 | > 50 | > 50 | 
COC(=O)[C@H](Cc1c[nH]c2ccccc12)NC(=O)C(C)(c1c[nH]c2ccc(C(F)(F)F)cc12)c1c[nH]c2ccc(C(F)(F)F)cc12 | 7.74 | 5.52 | 
Cc1ccc(CNC(=O)[C@H](Cc2c[nH]c3ccccc23)NC(=O)C(C)(c2c[nH]c3ccccc23)c2c[nH]c3ccccc23)cc1 | 41.3 | > 50 | 
CCCCCCOC(=O)[C@H](Cc1c[nH]c2ccccc12)NC(=O)C(C)(c1c[nH]c2ccccc12)c1c[nH]c2ccccc12 | 7.54 | 12.5 | 
CC(C)CCCOC(=O)[C@H](Cc1c[nH]c2ccccc12)NC(=O)C(C)(c1c[nH]c2ccccc12)c1c[nH]c2ccccc12 | 8.3 | 12.2 | 
FC(F)(F)c1nnc2c(Sc3ccccc3)nc3ccc(Cl)cc3n12 |  |  | viability at 5 µM [3]: 82.7%; Activity [4]: 10%; Activity [5]: 5.1%; Activity [6]: 2.24%; viability at 5 µM [7]: 76.1%; Activity [8]: 14.6%; Activity [9]: 8.42%; Activity [10]: 0.97%
CC(C(=O)N[C@@H](Cc1c[nH]c2ccccc12)C(=O)NCc1ccco1)(c1c[nH]c2ccccc12)c1c[nH]c2ccccc12 | 46.1 | 17.9 | 
CCCCCCCCCNC(=O)[C@H](Cc1c[nH]c2ccccc12)NC(=O)C(C)(c1c[nH]c2ccccc12)c1c[nH]c2ccccc12 | 9.68 | 7.17 | 
CC(C(=O)N[C@@H](Cc1c[nH]c2ccccc12)C(=O)NC[C@H]1CCCO1)(c1c[nH]c2ccccc12)c1c[nH]c2ccccc12 | > 50 | 21.3 | 
CCCCCCCNC(=O)C(C)(c1c[nH]c2ccccc12)c1c[nH]c2ccccc12 | > 50 | > 50 | 
CC(C(=O)N[C@@H](Cc1c[nH]c2ccccc12)C(=O)NCC1CCOCC1)(c1c[nH]c2ccccc12)c1c[nH]c2ccccc12 | > 50 | > 50 | 
C#CCNC(=O)[C@H](Cc1c[nH]c2ccccc12)NC(=O)C(C)(c1c[nH]c2ccccc12)c1c[nH]c2ccccc12 | 36.4 | 17.4 | 
CNC(=O)[C@H](Cc1c[nH]c2ccccc12)NC(=O)C(C)(c1c[nH]c2ccccc12)c1c[nH]c2ccccc12 | 46.3 | 23.2 | 
CC(C)CNC(=O)[C@H](Cc1c[nH]c2ccccc12)NC(=O)C(C)(c1c[nH]c2ccccc12)c1c[nH]c2ccccc12 | > 50 | > 50 | 
COCCCNC(=O)[C@H](Cc1c[nH]c2ccccc12)NC(=O)C(C)(c1c[nH]c2ccccc12)c1c[nH]c2ccccc12 | > 50 | 19.4 | 
CC(C(=O)N[C@@H](Cc1c[nH]c2ccccc12)C(=O)OCC1CCOCC1)(c1c[nH]c2ccccc12)c1c[nH]c2ccccc12 | 29.2 | > 50 | 

SMILES | IC50 [1] [µM] | IC50 [2] [µM] | further results
CCCCCCCCCCCCCCNC(=O)[C@H](Cc1c[nH]c2ccccc12)NC(=O)C(C)(c1c[nH]c2ccccc12)c1c[nH]c2ccccc12 | > 50 | > 50 | 
COC(=O)[C@H](Cc1c[nH]c2ccccc12)NC(=O)C(C)(c1c[nH]c2cccc(F)c12)c1c[nH]c2cccc(F)c12 | 22.1 | 10.8 | 
CCCCCCCCCOC(=O)[C@H](Cc1c[nH]c2ccccc12)NC(=O)C(C)(c1c[nH]c2ccccc12)c1c[nH]c2ccccc12 | 12.3 | 12.6 | 
CCCCCCCOC(=O)[C@H](Cc1c[nH]c2ccccc12)NC(=O)C(C)(c1c[nH]c2ccccc12)c1c[nH]c2ccccc12 | 10.7 | 10.5 | 
CC(C(=O)O)(c1c[nH]c2ccccc12)c1c[nH]c2ccccc12 | > 50 | > 50 | 
CC(C(=O)N[C@@H](Cc1c[nH]c2ccccc12)C(=O)NC1CC1)(c1c[nH]c2ccccc12)c1c[nH]c2ccccc12 | > 50 | > 50 | 
CCCCCCCCNC(=O)[C@H](Cc1c[nH]c2ccccc12)NC(=O)C(C)(c1c[nH]c2ccccc12)c1c[nH]c2ccccc12 | 10.7 | 16.1 | 
CC(C)CCNC(=O)[C@H](Cc1c[nH]c2ccccc12)NC(=O)C(C)(c1c[nH]c2ccccc12)c1c[nH]c2ccccc12 | 16.9 | 12.7 | 
CCCCCCNC(=O)C(C)(c1c[nH]c2ccccc12)c1c[nH]c2ccccc12 | > 50 | > 50 | 
COC(=O)[C@H](Cc1c[nH]c2ccccc12)NC(=O)C(C)(c1c[nH]c2c(Br)cccc12)c1c[nH]c2c(Br)cccc12 | 7.34 | 8.71 | 
CC(C)CCOC(=O)[C@H](Cc1c[nH]c2ccccc12)NC(=O)C(C)(c1c[nH]c2ccccc12)c1c[nH]c2ccccc12 | 17.3 | 20.4 | 
COC(=O)[C@H](Cc1c[nH]c2ccccc12)NC(=O)C(C)(c1c[nH]c2cc(Br)ccc12)c1c[nH]c2cc(Br)ccc12 | 4.81 | 6.62 | 
COC(=O)[C@H](Cc1c[nH]c2ccccc12)NC(=O)C(C)(c1c[nH]c2c(F)cccc12)c1c[nH]c2c(F)cccc12 | 15 | 5.52 | 
CCCCCCCCCCNC(=O)[C@H](Cc1c[nH]c2ccccc12)NC(=O)C(C)(c1c[nH]c2ccccc12)c1c[nH]c2ccccc12 | 7.23 | 6.07 | 
CCCCOC(=O)[C@H](Cc1c[nH]c2ccccc12)NC(=O)C(C)(c1c[nH]c2ccccc12)c1c[nH]c2ccccc12 | 21.7 | 20.2 | 
COC(=O)[C@H](Cc1c[nH]c2ccccc12)NC(=O)C(C)(c1cn(C)c2ccccc12)c1cn(C)c2ccccc12 | 59.3 | > 50 | 
CCCCCCNC(=O)[C@H](Cc1c[nH]c2ccccc12)NC(=O)C(C)(c1c[nH]c2ccccc12)c1c[nH]c2ccccc12 | 16 | 25.5 | 
Cn1nnc2c(C(N)=O)ncn2c1=O [TEMOZOLOMIDE] | 113 | > 500 | 
CCCCCCCCCCOC(=O)[C@H](Cc1c[nH]c2ccccc12)NC(=O)C(C)(c1c[nH]c2ccccc12)c1c[nH]c2ccccc12 | 19.9 | 13.1 | 
COC(=O)[C@H](Cc1c[nH]c2ccccc12)NC(=O)C(C)(c1c[nH]c2ccccc12)c1c[nH]c2ccccc12 | 17 | 36.9 | 
CCCCCCCCCCCCNC(=O)[C@H](Cc1c[nH]c2ccccc12)NC(=O)C(C)(c1c[nH]c2ccccc12)c1c[nH]c2ccccc12 | 12 | 10.8 | 
CC(C(=O)N[C@@H](Cc1c[nH]c2ccccc12)C(=O)O)(c1c[nH]c2ccccc12)c1c[nH]c2ccccc12 | > 50 | > 50 | 
